The test system of assay [1] is HCV replicon (BB7 sequence) in Huh-7-Clone A cells. Kind of assay: HCV replicon assay: ELISA of NS5A protein in replicon-containing cells (Inhibition of Viral RNA Replication). As to conditions: Hepatitis C virus, read-out: Replicon. In kind it is cell-based. In short, it runs like this: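 EC50 taken from an 8-point serially diluted dose curve, with NS5A level as read-out: fixed cells probed with primary monoclonal and HRP-conjugated secondary, TMB developed 30 min, OD 650 nm. Compound exposure 72 h in Huh-7-Clone A replicon cells (BB7 sequence).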

The target in another assay is T1, HCV NS5B (Hepatitis C virus genotype 1b, UniProt Q9WMX2).
T1 construct: fusion protein, of which the carboxyl terminal 21 amino acids were removed to enhance its solubility; His tag (GSHHHHHH); made in house; host or cells: E. coli
Kind of assay: Inhibition of viral RNA-dependent RNA polymerase (RdRp), in vitro biochemical assay. On the set-up: species or system HCV genotype 1b virus (BB7). As to conditions: read-out: HCV pol-BB7 IC50. An outline of the steps: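 IC50 values are the concentrations that halve in vitro RNA synthesis by HCV NS5B polymerase. The enzyme was a C-terminally truncated (Δ21), His-tagged genotype 1b (BB7 consensus) protein purified from E. coli.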

The mark [2] stands for this setting: HCV replicon assay, ranges of EC50.
[3] abbreviates: HCV NS5B RdRp, BB7, class symbols A-D.
Where [4] appears, read: HCV replicon assay, ranges of 50% effective concentration (EC50).
Where [5] appears, read: HCV NS5B polymerase, BB7 (genotype 1b), values given as range classes A-D.
Setting [6] is: ranges of EC50 in HCV replicon assay.
Where [7] appears, read: Huh-7-Clone A, NS5A ELISA, 72-hour incubation, ranges of EC50.
The mark [8] stands for this setting: purified His-tagged NS5B (BB7), carboxyl terminal 21 amino acids removed.
[9] abbreviates: HCV NS5B RdRp, BB7, activity class.
Where [10] appears, read: HCV NS5B RdRp, BB7, reported as range class.

The structures appear in SMILES notation. Like-named read-outs stand apart in the source and are kept apart here.

For `CNC(=O)c1c(-c2ccc(F)cc2)oc2cc(N(C)S(C)(=O)=O)c(O)cc12` [Example 287, 2-(4-Fluoro-phenyl)-5-hydroxy-6-(methanesulfonyl-methyl-amino)-benzofuran-3-carboxylic acid methylamide], in assay [1] (setting [2]), the EC50 is less than 10000 nM. Moreover, the IC50 on HCV NS5B (setting [3]) is not above 500 nM.

For the molecule `CNC(=O)c1c(-c2ccc(F)cc2)oc2cc(N(C)C)c(OC)cc12` [Example 394, 6-Dimethylamino-2-(4-fluoro-phenyl)-5-methoxy-benzofuran-3-carboxylic acid methylamide], the EC50 in assay [1] (setting [4]) was less than 1000 nM. The IC50 at HCV NS5B (setting [5]) is not above 500 nM.

Consider `CNC(=O)c1c(-c2ccncc2)oc2ccc(OC)cc12` [Example 107, 5-Methoxy-2-pyridin-4-yl-benzofuran-3-carboxylic acid methylamide], for which, in assay [1] (setting [6]), the EC50 was less than 100000 nM. In addition, the IC50 on HCV NS5B (HCV NS5B RdRp, BB7 genotype 1b) lay in the range of 500 to 5000 nM.

As to `CNC(=O)c1c(-c2ccc(CNC(C)=O)cc2)oc2ccc(OC(C)C)cc12` [Example 4, 2-[4-(Acetylamino-methyl)-phenyl]-5-isopropoxy-benzofuran-3-carboxylic acid methylamide], the EC50 in assay [1] (setting [7]) was less than 30000 nM. Besides, at HCV NS5B (setting [8]), the IC50 lay in the range of 500 to 5000 nM.

Regarding `CNC(=O)c1c(-c2ccc(F)cc2)oc2cc(C3CCN(C(C)=O)C3)c(OC)cc12` (stereo not drawn) [Example 345, 6-(1-Acetyl-pyrrolidin-3-yl)-2-(4-fluoro-phenyl)-5-methoxy-benzofuran-3-carboxylic acid methylamide], in assay [1] (setting [2]), the EC50 is less than 10000 nM. The IC50 on HCV NS5B (setting [9]) was not above 500 nM.

As for `CNC(=O)c1c(-c2ccc(F)cc2)oc2cc(CN(C)C)c(OC(C)C)cc12` [Example 237, 6-Dimethylaminomethyl-2-(4-fluoro-phenyl)-5-isopropoxybenzofuran 3-carboxylic acid methylamide], in assay [1] (HCV replicon, range of EC50), the EC50 was less than 30000 nM. Besides, on HCV NS5B (setting [10]), the IC50 was in the range of 5000 to 30000 nM.

Take `CNC(=O)c1c(-c2ccccc2)oc2ccc(OC)cc12` [Example 452, 5-Methoxy-2-phenyl-benzofuran-3-carboxylic acid methylamide]: the EC50 in assay [1] (setting [2]) was more than 10000 nM. Further, the half-inhibitory concentration (IC50) on HCV NS5B (HCV NS5B RdRp, BB7 (genotype 1b), reported as class symbols) was not above 500 nM.

With `CNC(=O)c1c(-c2ccc(F)cc2)oc2cc(-c3c(C)noc3C)c(OC(C)C)cc12` [Example 159, 6-(3,5-Dimethyl-isoxazol-4-yl)-2-(4-fluoro-phenyl)-5-isopropoxy-benzofuran-3-carboxylic acid methylamide], in assay [1] (setting [6]), the EC50 is less than 1000 nM. In addition, the half-inhibitory concentration (IC50) at HCV NS5B (HCV NS5B RdRp, BB7 genotype 1b) was not above 500 nM.

Consider `CNC(=O)c1c(-c2ccc(F)cc2)oc2cc(N(C)S(C)(=O)=O)c(OCC#N)cc12` [Example 395, 5-Cyanomethoxy-2-(4-fluoro-phenyl)-6-(methanesulfonyl-methyl-amino)-benzofuran-3-carboxylic acid methylamide], for which the EC50 in assay [1] (setting [4]) was less than 1000 nM. Further, at HCV NS5B (setting [5]), the 50% inhibitory concentration (IC50) was not above 500 nM.

Consider `CNC(=O)c1c(-c2ccc(F)cc2)oc2cc(C(C)O)c(OC(C)C)cc12` (stereo not drawn) [Example 222, 2-(4-Fluoro-phenyl)-6-(1-hydroxy-ethyl)-5-isopropoxy-benzofuran-3-carboxylic acid methylamide], for which the EC50 in assay [1] (HCV replicon, range of EC50) was less than 1000 nM. The concentration for half-maximal inhibition (IC50) at HCV NS5B (setting [10]) is not above 500 nM.

For `CNC(=O)c1c(-c2ccc(F)cc2)oc2cc(N(C)S(C)(=O)=O)c(OCc3cccc(OC)c3)cc12` [Example 325, 2-(4-Fluoro-phenyl)-6-(methanesulfonyl-methyl-amino)-5-(3-methoxy-benzyloxy)-benzofuran-3-carboxylic acid methylamide], the EC50 in assay [1] (setting [2]) was less than 1000 nM. The half-inhibitory concentration (IC50) on HCV NS5B (setting [3]) is not above 500 nM.

With `CNC(=O)c1c(-c2ccc(F)cc2)oc2cc(N(Cc3ccc(C(=O)O)cc3)S(C)(=O)=O)c(OC(C)C)cc12` [Example 272, 4-({[2-(4-Fluoro-phenyl)-5-isopropoxy-3-methylcarbamoyl-benzofuran-6-yl]-methanesulfonyl-amino}-methyl)-benzoic acid], in assay [1] (setting [2]), the EC50 is not above 1000 nM. The IC50 at HCV NS5B (setting [3]) was not above 500 nM.

On to `CNC(=O)c1c(-c2ccc(F)cc2)oc2cc(-c3ccn(C)n3)c(OC(C)C)cc12` [Example 232, 2-(4-Fluoro-phenyl)-5-isopropoxy-6-(1-methyl-1H-pyrazol-3-yl)-benzofuran-3-carboxylic acid methylamide], for which, in assay [1] (HCV replicon, range of EC50), the EC50 is less than 10000 nM. At HCV NS5B (setting [10]), the IC50 fell in the range of 500 to 5000 nM.

In the case of `CNC(=O)c1c(-c2ccc(F)cc2)oc2cc(S(=O)(=O)N(C)C)c(OC(C)C)cc12` [Example 144, 6-Dimethylsulfamoyl-2-(4-fluoro-phenyl)-5-isopropoxy-benzofuran-3-carboxylic acid methylamide], the EC50 in assay [1] (setting [6]) is less than 30000 nM. For the same molecule, the 50% inhibitory concentration (IC50) on HCV NS5B (HCV NS5B RdRp, BB7 genotype 1b) was not above 500 nM.

Regarding `CNC(=O)c1c(-c2cc(F)c(F)cc2F)oc2ccc(OC)cc12` [Example 62, 5-Methoxy-2-(2,4,5-trifluoro-phenyl)-benzofuran-3-carboxylic acid methylamide], the EC50 in assay [1] (setting [7]) is less than 30000 nM. Further, the 50% inhibitory concentration (IC50) on HCV NS5B (setting [8]) is 5000 to 30000 nM.

With `CNC(=O)c1c(-c2ccc(F)cc2)oc2cc(C(C)=O)c(OC)cc12` [Example 261, 6-Acetyl-2-(4-fluoro-phenyl)-5-methoxy-benzofuran-3-carboxylic acid methylamide], in assay [1] (setting [2]), the EC50 was less than 1000 nM. Moreover, the half-inhibitory concentration (IC50) at HCV NS5B (setting [3]) is not above 500 nM.

With `CNC(=O)c1c(-c2ccc(F)cc2)oc2cc(-c3cn[nH]c3C)c(OC(C)C)cc12` [Example 257, 2-(4-Fluoro-phenyl)-5-isopropoxy-6-(5-methyl-1H-pyrazol-4-yl)-benzofuran-3-carboxylic acid methylamide], the EC50 in assay [1] (setting [2]) was less than 1000 nM. Besides, the IC50 on HCV NS5B (setting [3]) was not above 500 nM.

`CNC(=O)c1c(-c2ccc(F)cc2)oc2cc(C3CCCN3S(C)(=O)=O)c(OC(C)C)cc12` (stereo not drawn) [Example 275, 2-(4-Fluoro-phenyl)-5-isopropoxy-6-(1-methanesulfonyl-pyrrolidin-2-yl)-benzofuran-3-carboxylic acid methylamide]: in assay [1] (setting [2]), the EC50 was less than 1000 nM. In addition, the IC50 at HCV NS5B (setting [3]) was not above 500 nM.

`CNC(=O)c1c(-c2ccc(F)cc2)oc2cc(O)c(OC)cc12` [Example 208, 2-(4-Fluoro-phenyl)-6-hydroxy-5-methoxy-benzofuran-3-carboxylic acid methylamide]: in assay [1] (HCV replicon, range of EC50), the EC50 is less than 30000 nM. Further, the concentration for half-maximal inhibition (IC50) at HCV NS5B (setting [10]) fell in the range of 500 to 5000 nM.

As to `CNC(=O)c1c(-c2ccc(F)cc2)oc2cc(N3CCC(S(C)(=O)=O)C3)c(OC(C)C)cc12` (stereo not drawn) [Example 108, 2-(4-Fluoro-phenyl)-5-isopropoxy-6-(3-methanesulfonyl-pyrrolidin-1-yl)-benzofuran-3-carboxylic acid methylamide], in assay [1] (setting [6]), the EC50 was less than 1000 nM. The IC50 on HCV NS5B (HCV NS5B RdRp, BB7 genotype 1b) was not above 500 nM.

On to `CNC(=O)c1c(-c2ccc(F)cc2)oc2cc(N3CCOCC3)c(OC(C)C#N)cc12` (stereo not drawn) [Example 229, 5-(Cyano-methyl-methoxy)-2-(4-fluoro-phenyl)-6-morpholin-4-yl-benzofuran-3-carboxylic acid methylamide], for which the EC50 in assay [1] (HCV replicon, range of EC50) was less than 10000 nM. Also, the half-maximal inhibitory concentration (IC50) on HCV NS5B (setting [10]) was not above 500 nM.

On to `CNC(=O)c1c(-c2ccc(F)cc2)oc2cc(NS(C)(=O)=O)c(F)cc12` [Example 332, 5-Fluoro-2-(4-fluoro-phenyl)-6-methanesulfonylamino-benzofuran-3-carboxylic acid methylamide], for which, in assay [1] (setting [2]), the EC50 was less than 10000 nM. In addition, the IC50 on HCV NS5B (setting [9]) fell in the range of 500 to 5000 nM.

For the molecule `CNC(=O)c1c(-c2ccc(F)cc2)oc2cc(N(C(C)=O)S(C)(=O)=O)c(OC)cc12` [Example 289, 6-(Acetyl-methanesulfonyl-amino)-2-(4-fluoro-phenyl)-5-methoxy-benzofuran-3-carboxylic acid methylamide], the EC50 in assay [1] (setting [2]) was less than 1000 nM. Also, on HCV NS5B (setting [3]), the 50% inhibitory concentration (IC50) is not above 500 nM.

As for `CNC(=O)c1c(-c2ccccc2Cl)oc2ccc(OC)cc12` [Example 66, 2-(2-Chloro-phenyl)-5-methoxy-benzofuran-3-carboxylic acid methylamide], the EC50 in assay [1] (setting [7]) was more than 30000 nM. Moreover, the IC50 at HCV NS5B (setting [8]) fell in the range of 5000 to 30000 nM.

Consider `CNC(=O)c1c(-c2ccc(F)cc2)oc2cc(N(C(C)C)S(C)(=O)=O)c(OC(C)C)cc12` [Example 136, 2-(4-Fluoro-phenyl)-5-isopropoxy-6-(isopropyl-methanesulfonyl-amino)-benzofuran-3-carboxylic acid methylamide], for which, in assay [1] (setting [6]), the EC50 was less than 1000 nM. Also, the IC50 at HCV NS5B (HCV NS5B RdRp, BB7 genotype 1b) was not above 500 nM.

For `CNC(=O)c1c(-c2ccc(F)cc2)oc2cc(N3CCOCC3)c(OCc3nsc(Cl)n3)cc12` [Example 206, 5-(5-Chloro-[1,2,4]thiadiazol-3-ylmethoxy)-2-(4-fluoro-phenyl)-6-morpholin-4-yl-benzofuran-3-carboxylic acid methylamide], in assay [1] (HCV replicon, range of EC50), the EC50 is less than 1000 nM. For the same molecule, the concentration for half-maximal inhibition (IC50) at HCV NS5B (setting [10]) lay within 500 to 5000 nM.

In the case of `CNC(=O)c1c(-c2ccc(F)cc2)oc2cc(N(Cc3c(C)noc3C)S(C)(=O)=O)c(OC)cc12` [Example 290, 6-[(3,5-Dimethyl-isoxazol-4-ylmethyl)-methanesulfonyl-amino]-2-(4-fluoro-phenyl)-5-methoxy-benzofuran-3-carboxylic acid methylamide], the EC50 in assay [1] (setting [2]) was less than 10000 nM. Also, the IC50 at HCV NS5B (setting [3]) was not above 500 nM.

The term IC50 denotes the concentration needed to halve the response being measured.
